Reference: US5635534A, “Aromatic amino-alcohol derivatives having anti-diabetic and anti-obesity properties, their preparation and their therapeutic uses” (Sankyo Company, Limited, priority 1991, dated 1997)
pIC50: −log10 of the molar value. Structures can show the parent of a compound that is named as a salt. Where two headings read alike, the source gives them in different places.

Columns and labels:
[1] = tested on: male mice of the ddY strain; experiment: Toxicity, oral administration to mice, one week observation; format: in vivo, mouse; conditions: 300 mg/kg oral; for survival at the end of the period of observation: groups of 3, one week; for abnormalities which could be attributed to the test compounds: groups of 3, one week observation
Description: The test animals employed were male mice of the ddY strain. The animals were employed in groups of 3. The test compound was administered orally to each animal group at a dose of 300 mg/kg body weight. The compounds employed were those prepared as described in Examples 1, 3, 8, 24, 47 and 48.

KK male mice = experiment: Hypoglycemic effect during glucose load in mice; format: in vivo, mouse; conditions: 1 mg/kg oral, 4 mice; for inhibition in vivo at 1 mg/kg: Mus musculus, po
Description: Hypoglycemic effect during glucose load
The hypoglycemic effect of the compounds of the present invention during glucose load in mice was measured as follows.
Three month old KK male mice, each weighing 28 to 30 g, were fasted overnight, and then 1 mg/kg of the compound to be tested or carboxymethylcellulose (CMC) as a control was administered orally. After 60 minutes, 1.2 g/kg of D-glucose was administered subcutaneously. Then, at 60 and 120 minutes after the subcutaneous glucose injection, blood samples were taken, and the glucose levels were determined by means of a glucose analyzer (GL-101, a product of Mitsubishi Kasei, Co.). The hypoglycemic rates (R) of the test compound during the glucose load were calculated according to the following equation: […]
A: Blood glucose level in the group administered CMC
B: Blood glucose level in the group administered a test sample.

[2] = molecular target: T1, Bovine lens aldose reductase (Bos taurus, UniProt P16116); experiment: Inhibition of Aldose reductase; format: biochemical; conditions: for inhibition at 5 µg/mL: 5 μg/ml
T1 construct: Bovine lens aldose reductase was separated and partially purified; from tissue; host or cells: bovine lens
Description: Inhibition of Aldose reductase
Bovine lens aldose reductase was separated and partially purified by the method of S. Hyman and J. H. Kinoshita [J. Biol. Chem., 240, 877 (1965)] and K. Inagaki, I. Miwa and J. Okuda [Arch. Biochem. Biophys., 316, 337 (1982)], and its activity was determined photometrically by the method of Varma et al. [Biochem. Pharmac., 25, 2505 (1976)]. Inhibition of enzyme activity was measured for the compounds of the present invention at a concentration of 5 μg/ml, and the results are shown in the following Table 10.

[3] = 1 h, 60 min after subcutaneous glucose 1.2 g/kg, read-out: Hypoglycemic rate during glucose load, 60 min.
[4] = 2 h, 120 min after subcutaneous glucose 1.2 g/kg, read-out: Hypoglycemic rate during glucose load, 120 min.

| Compound | inhibition in vivo at 1 mg/kg (KK male mice; [3]) | inhibition in vivo at 1 mg/kg (KK male mice; [4]) | further results |
| --- | --- | --- | --- |
| CC(COc1ccc(CO)cc1)NCC(O)c1cccc(Cl)c1 (stereo not shown) [Example 1, 2-[2-(4-Hydroxymethylphenoxy)-1-methylethyl]-amino-1-(3-chlorophenyl)ethanol] |  |  | survival at the end of the period of observation [1]: All animals were alive; abnormalities which could be attributed to the test compounds [1]: no abnormalities |
| COC(=O)Cc1ccc(OCC(C)NCC(O)c2cccc(Cl)c2)cc1 (stereo not shown) [Example 3, 2-[2-(4-Methoxycarbonylmethylphenoxy)-1-methylethyl]-amino-1-(3-chlorophenyl)ethanol] | 67.3% | 56.5% |  |
| COC(=O)C(O)Cc1ccc(OCC(C)NCC(O)c2cccc(Cl)c2)cc1 (stereo not shown) [Example 6, 2-{2-[4-(2-Methoxycarbonyl-2-hydroxyethyl)phenoxy]-1-methylethyl}amino-1-(3-chlorophenyl)ethanol] | 43.4% | 40.5% |  |
| CC(COc1ccc(CCO)cc1)NCC(O)c1cccc(Cl)c1 (stereo not shown) [Example 8, 2-{2-[4-(2-Hydroxyethyl)phenoxy]-1-methylethyl}amino-1-(3-chlorophenyl)ethanol] | 56.8% | 45.1% |  |
| COC(=O)Cc1ccc(OCC(C)NCC(O)c2cccc(Cl)c2)cc1 (stereo not shown) [Example 24, 2-[2-(4-Methoxycarbonylmethylphenoxy)-1-methylethyl]amino-1-(3-chloropbenyl)ethanol fumarate] |  |  | Hypoglycemic rate during glucose load, 60 min. (KK male mice; 60 min after subcutaneous glucose 1.2 g/kg): 61.4%; Hypoglycemic rate during glucose load, 120 min. (KK male mice; 120 min after subcutaneous glucose 1.2 g/kg): 56.9% |
| COC(=O)Cc1ccc(OC[C@@H](C)NC[C@H](O)c2ccccc2)cc1 [Example 27, 2-[2-(4-Methoxycarbonylmethylphenoxy)-1(R)-methylethyl]amino-1(R)-phenylethanol] | 68.4% | 52.1% |  |
| CC(COc1ccc(CC(=O)NO)cc1Cl)NCC(O)c1cccc(Cl)c1 (stereo not shown) [Example 34, 2-{2-[2-Chloro-4-(N-hydroxycarbamoylmethyl)phenoxy]-1-methylethyl}amino-1-(3-chlorophenyl)ethanol] |  |  | pIC50 [2]: 5.22; inhibition at 5 µg/mL [2]: 63.3% |
| CC(COc1ccc(CC(=O)O)cc1Cl)NCC(O)c1cccc(Cl)c1 (stereo not shown) [Example 36, 2-[2-(4-Carboxymethyl-2-chlorophenoxy)-1-methylethyl]amino-1-(3-chlorophenyl)ethanol] |  |  | pIC50 [2]: 5.14; inhibition at 5 µg/mL [2]: 60.4% |
| COC(=O)Cc1ccc(OCC(C)NCC(O)c2cc(Cl)cc(Cl)c2)cc1 (stereo not shown) [Example 40, 2-[2-(4-Methoxycarbonylmethylphenoxy)-1-methylethyl]amino-1-(3,5-dichlorophenyl)ethanol] | 37.9% | 24.5% |  |
| COC(=O)Cc1ccc(OCC(C)NCC(O)c2ccc(F)c(Cl)c2)cc1 (stereo not shown) [Example 41, 2-[2-(4-Methoxycarbonylmethylphenoxy)-1-methylethyl]amino-1-(3-chloro-4-fluorophenyl)ethanol] | 50.1% | 43% |  |
| COC(=O)Cc1ccc(OCC(C)NCC(O)c2cccc(Br)c2)cc1 (stereo not shown) [Example 42, 2-[2-(4-Methoxycarbonylmethylphenoxy)-1-methylethyl]amino-1-(3-bromophenyl)ethanol] | 60.9% | 57.6% |  |
| COC(=O)Cc1ccc(OCC(C)NCC(O)c2cccc(C(F)(F)F)c2)cc1 (stereo not shown) [Example 43, 2-[2-(4-Methoxycarbonylmethylphenoxy)-1-methylethyl]amino-1-(3-trifluoromethylphenyl)ethanol] | 66.5% | 58.6% |  |
| COC(=O)Cc1ccc(OCC(C)NCC(O)c2cccc(OC)c2)cc1 (stereo not shown) [Example 44, 2-[2-(4-Methoxycarbonylmethylphenoxy)-1-methylethyl]amino-1-(3-methoxyphenyl)ethanol] | 38.1% | 24.8% |  |
| COC(=O)Cc1ccc(OC[C@@H](C)NC[C@H](O)c2cccc(Cl)c2)cc1.O=C(O)/C=C/C(=O)O [Example 47, 2-[2-(4-Methoxycarbonylmethylphenoxy)-1(R)-methylethyl]amino-1(R)-(3-chlorophenyl)ethanol fumarate] | 60.9% | 51.5% | survival at the end of the period of observation [1]: All animals were alive; abnormalities which could be attributed to the test compounds [1]: no abnormalities |
| C[C@H](COc1ccc(CC2SC(=O)NC2=O)cc1)NC[C@H](O)c1cccc(Cl)c1 (stereo partly drawn) [Example 48, 5-[4-{2(R)-[2(R)-(3-Chlorophenyl)-2-hydroxyethylamino]propoxy}benzyl]thiazolidine-2,4-dione] |  |  | inhibition at 5 µg/mL [2]: 47.5% |
